According to patent US6841567B1, “Cyclic substituted fused pyrrolocarbazoles and isoindolones” (Cephalon, Inc., priority 1999, dated 2005):

How the values were obtained:
[1] = target: T1, VEGF receptor (human flk-1, KDR, VEGFR2) kinase domain (Homo sapiens, UniProt P35968); assay: Inhibition of vascular endothelial growth factor receptor kinase activity (ELISA); format: biochemical; settings: for VEGF receptor kinase activity % Inh. @ 300 nM (values in parentheses) / inhibition at 0.3 µM: 300 nM compound; for inhibition at 0.3 µM: read-out: VEGF receptor kinase activity % Inh. @ 300 nM (values in parentheses); for IC50: 40 μM ATP
T1 construct: VEGF receptor (human flk-1, KDR, VEGFR2) kinase domain; made in house; host or cells: baculovirus expression system
Protocol: Cyclic substituted fused pyrrolocarbazole and isoindolone compounds were examined for their inhibitory effects on the kinase activity of baculovirus-expressed VEGF receptor (human flk-1, KDR, VEGFR2) kinase domain using the procedure described for the trkA kinase ELISA assay described above. The kinase reaction mixture, consisting of 50 mM Hepes, pH 7.4, 40 μM ATP, 10 mM MnCl2, 0.1% BSA, 2% DMSO, and various concentrations of inhibitor, was transferred to PLC-γ/GST-coated plates. VEGFR kinase was added and the reaction was allowed to proceed for 15 min. at 37 C. Detection of phosphorylated product was accomplished by addition of antII-phosphotyrosine antibody (UBI). A secondary enzymeconjugated antibody was delivered to capture the antibody-phosphorylated PLC-γ/GST complex. The activity of the bound enzyme was measured via an amplified detection system (Gibco-BRL). Inhibition data were analyzed using the sigmoidal dose-response (variable slope) equation in GraphPad Prism.

[2] = target: T2, baculovirus-expressed human trkA cytoplasmic domain (Homo sapiens, UniProt P04629); assay: Inhibition of trkA tyrosine kinase activity (ELISA-based assay); format: biochemical; settings: for IC50: 40 μM ATP
T2 construct: baculovirus-expressed human trkA cytoplasmic domain; made in house; host or cells: baculovirus expression system
Protocol: Selected cyclic substituted fused pyrrolocarbazole and isoindolone compounds were tested for their ability to inhibit the kinase activity of baculovirus-expressed human trkA cytoplasmic domain using an ELISA-based assay as previously described (Angeles et al., Anal. Biochem. 236: 49-55, 1996). Briefly, the 96-well microtiter plate was coated with substrate solution (recombinant human phospholipase C-γ1/glutathione S-transferase fusion protein (Rotin et al., EMBO J., 11: 559-567, 1992). Inhibition studies were performed in 100 μl assay mixtures containing 50 mM Hepes, pH 7.4, 40 μM ATP, 10 mM MnCl2, 0.1% BSA, 2% DMSO, and various concentrations of inhibitor. The reaction was initiated by addition of trkA kinase and allowed to proceed for 15 minutes at 37° C. An antibody to phosphotyrosine (UBI) was then added, followed by a secondary enzyme-conjugated antibody, alkaline phosphatase-labelled goat antII-mouse IgG (Bio-Rad). The activity of the bound enzyme was measured via an amplified detection system (Gibco-BRL). Inhibition data were analyzed using the sigimoidal dose-response (variable slope) equation in GraphPad Prism.

[3] = target: T3, trkA (NIH3T3 cells transfected with trkA) (Homo sapiens, UniProt P04629); assay: Inhibition of NGF-stimulated trk phosphorylation in a whole cell preparation; format: cell-based; settings: NGF 10 ng/ml; for Cell Score @ 100 nM (percent decrease in trk protein band): 100 nM compound; for Cell Score @ 1 uM (percent decrease in trk protein band): 1 uM compound
T3 construct: expressed in transfected cells; host or cells: NIH3T3
Protocol: NIH3T3 cells transfected with trkA were grown in 100 mm dishes. Subconfluent cells were serum-starved by replacing media with serum-free 0.05% BSA-DMEM containing compound (100 nM and 1 μM) or DMSO (added to controls) for one hour at 37° C. NGF (Harlan/Bioproducts for Science) was then added to the cells at a concentration of 10 ng/ml for 5 minutes. Cells were lysed in buffer containing detergent and protease inhibitors. Clarified cell lysates were normalized to protein using BCA method and immunoprecipitated with antII-trk antibody. Polyclonal antII-trk antibody was prepared against a peptide corresponding to the 14 amino acids at the carboxy terminus of trk (Martin-Zanca et al., Mol. Cell. Biol. 9: 24-33, 1989). The immune complexes were collected on Protein A Sepharose beads (Sigma Chem. Co., St. Lois, Mo.), separated by SDS polyacrylamide gel electrophoresis (SDS-PAGE), and transferred to a polyvinylidene difluoride (PVDF) membrane. The membrane was immunoblotted with antII-phosphotyrosine antibody (UBI), followed by incubation with horseradish peroxidase coupled goat antII-mouse IgG (Bio-Rad Laboratories, Hercules, Calif.). Phosphorylated proteins were visualized using ECL (Arnersham Life Science, Inc., Arlington Heights, Ill.). The area of the trk protein band was measured and compared to NGF-stimulated control. The inhibition scoring system used, based on percent decrease in trk protein band, was as follows: 0=no decrease; 1=1-25%; 2=26-49%; 3=50-75%; 4=76-100%.

T3 sequence (P04629 33-796, species assumed): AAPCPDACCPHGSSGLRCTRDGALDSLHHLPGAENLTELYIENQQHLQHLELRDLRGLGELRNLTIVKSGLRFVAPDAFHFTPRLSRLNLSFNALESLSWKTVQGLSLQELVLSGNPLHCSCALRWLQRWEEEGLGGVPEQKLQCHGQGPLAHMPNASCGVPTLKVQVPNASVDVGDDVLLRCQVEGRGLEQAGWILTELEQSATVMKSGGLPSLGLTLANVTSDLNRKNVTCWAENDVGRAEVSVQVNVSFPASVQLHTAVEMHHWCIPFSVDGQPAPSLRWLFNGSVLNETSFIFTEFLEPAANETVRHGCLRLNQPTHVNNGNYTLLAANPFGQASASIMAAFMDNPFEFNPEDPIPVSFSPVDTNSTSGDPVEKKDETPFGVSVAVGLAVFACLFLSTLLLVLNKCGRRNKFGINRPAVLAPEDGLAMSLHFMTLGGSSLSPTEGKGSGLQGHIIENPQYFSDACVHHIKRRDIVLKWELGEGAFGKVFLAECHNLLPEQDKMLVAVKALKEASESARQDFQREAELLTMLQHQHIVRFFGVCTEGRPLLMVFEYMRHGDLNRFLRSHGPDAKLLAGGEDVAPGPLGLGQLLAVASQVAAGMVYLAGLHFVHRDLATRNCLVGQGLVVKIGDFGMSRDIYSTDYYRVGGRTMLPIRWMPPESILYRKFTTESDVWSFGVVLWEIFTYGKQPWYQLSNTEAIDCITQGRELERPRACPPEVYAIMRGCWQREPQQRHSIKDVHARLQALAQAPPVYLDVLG
T1 sequence (P35968 834-1162 limits assumed): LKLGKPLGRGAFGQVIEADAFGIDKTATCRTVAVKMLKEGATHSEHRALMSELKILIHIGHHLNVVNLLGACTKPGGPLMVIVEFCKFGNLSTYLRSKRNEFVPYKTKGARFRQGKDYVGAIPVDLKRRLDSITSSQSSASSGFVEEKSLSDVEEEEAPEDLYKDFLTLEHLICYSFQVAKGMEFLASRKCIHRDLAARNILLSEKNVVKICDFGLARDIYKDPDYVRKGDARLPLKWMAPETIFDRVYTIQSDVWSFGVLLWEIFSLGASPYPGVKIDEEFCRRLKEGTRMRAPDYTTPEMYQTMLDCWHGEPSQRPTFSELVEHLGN
T2 sequence (P04629 440-796 limits assumed): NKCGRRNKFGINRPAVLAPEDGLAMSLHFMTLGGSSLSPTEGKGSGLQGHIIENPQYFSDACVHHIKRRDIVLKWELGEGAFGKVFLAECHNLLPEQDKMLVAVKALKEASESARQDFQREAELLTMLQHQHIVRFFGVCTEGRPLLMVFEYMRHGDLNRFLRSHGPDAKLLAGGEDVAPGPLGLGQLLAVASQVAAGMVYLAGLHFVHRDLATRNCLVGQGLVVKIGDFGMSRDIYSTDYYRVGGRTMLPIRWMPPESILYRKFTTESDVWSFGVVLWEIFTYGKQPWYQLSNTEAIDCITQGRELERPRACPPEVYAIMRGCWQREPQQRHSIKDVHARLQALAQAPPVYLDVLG

## O=C1NCc2c1c1c(c3[nH]c4ccccc4c23)C(C2CCOC2=O)c2ccccc2-1 (single isomer, unassigned) [II-60]
[1]
  VEGF receptor kinase activity % Inh. @ 300 nM (values in parentheses): (45) %

## O=C1NCc2c1c1c(c3[nH]c4ccccc4c23)C(C2CSCC2O)c2ccccc2-1 (centres unmarked) [II-11]
[2]
  IC50: 0.139 µM

## O=C1NCc2c1c1c(c3[nH]c4ccccc4c23)C(C2CCCC2)c2ccccc2-1 (single isomer, unassigned) [II-59]
[2]; 300 nM compound
  trkA kinase activity % Inh. @ 300 nM (values in parentheses): (10) %

## O=C1NCc2c1c1c(c3[nH]c4ccccc4c23)C(C2OCCC2O)c2ccccc2-1 (mixture of isomers) [II-43]
[2]
  IC50: 0.11 µM

## CC1(C2c3ccccc3-c3c4c(c5c([nH]c6ccccc65)c32)C(=O)NC4)CCCO1 (centres unmarked) [II-37]
[2]
  IC50: 0.191 µM

## O=C1NCc2c1c1c(c3[nH]c4ccccc4c23)C(C2(O)CCCCC2)c2ccccc2-1 (centres unmarked) [II-50]
[2]
  IC50: 0.113 µM

## O=C1CCCC(C2c3ccccc3-c3c4c(c5c([nH]c6ccccc65)c32)CNC4=O)O1 (centres unmarked) [II-05]
[2]
  IC50: 0.13 µM

## O=C1NCc2c1c1c(c3[nH]c4ccccc4c23)C(C2(CCCCl)CCCO2)c2ccccc2-1 (centres unmarked) [II-19]
[2]
  IC50: 0.162 µM
[1]
  inhibition at 0.3 µM: 46%

## O=C1NCc2c1c1c(c3[nH]c4ccccc4c23)C(C2(c3cccs3)CCCO2)c2ccccc2-1 (centres unmarked) [II-09]
[2]
  IC50: 0.134 µM

## CC1(C2c3ccccc3-c3c4c(c5c([nH]c6ccccc65)c32)CNC4=O)CCCCO1 (centres unmarked) [II-12]
[2]
  IC50: 0.241 µM

## C=CC1(C2c3ccccc3-c3c4c(c5c([nH]c6ccccc65)c32)CNC4=O)CCCO1 (centres unmarked) [II-28]
[2]
  IC50: 0.138 µM

## CCOC1CCC(C2c3ccccc3-c3c4c(c5c([nH]c6ccccc65)c32)CNC4=O)O1 (centres unmarked) [II-40a]
[2]
  IC50: 0.054 µM

## O=C1NCc2c1c1c(c3c2c2cc(Br)ccc2n3CC2CO2)Cc2ccccc2-1 (racemic) [II-57]
[1]
  IC50: 0.38 µM

## O=C1NCc2c1c1c(c3[nH]c4ccccc4c23)C(C2(CCl)CCCO2)c2ccccc2-1 (centres unmarked) [II-44]
[2]
  IC50: 0.08 µM
[1]
  IC50: > 1 µM

## CC1(C2c3ccccc3-c3c4c(c5c([nH]c6ccccc65)c32)CNC4=O)CCCO1 (single isomer, unassigned) [II-30a]
[2]
  IC50: 0.214 µM
[1]
  inhibition at 0.3 µM: 59%

## CC1(C2c3ccccc3-c3c4c(c5c([nH]c6ccccc65)c32)CNC4=O)CCCO1 (single isomer, unassigned) [II-30b]
[2]; 300 nM compound
  trkA kinase activity % Inh. @ 300 nM (values in parentheses): (32) %

## O=C1NCc2c1c1c(c3c2c2ccccc2n3CC2CO2)Cc2ccccc2-1 (racemic) [II-01a]
[2]
  IC50: 0.092 µM

## CCOC(=O)C1C(=O)CCC1C1c2ccccc2-c2c3c(c4c([nH]c5ccccc54)c21)C(=O)NC3=O (single isomer, unassigned) [II-56]
[2]; 300 nM compound
  trkA kinase activity % Inh. @ 300 nM (values in parentheses): (12) %

## O=C1CCC(C2c3ccccc3-c3c4c(c5c([nH]c6ccccc65)c32)CNC4=O)O1 (centres unmarked) [II-06]
[2]
  IC50: 0.09 µM
[1]
  inhibition at 0.3 µM: 56%
[3]
  Cell Score @ 100 nM (percent decrease in trk protein band): 1 (1=1-25%)
  Cell Score @ 1 uM (percent decrease in trk protein band): 2 (2=26-49%)

## O=C1NCc2c1c1c(c3[nH]c4ccccc4c23)C(C2CCCCO2)c2ccccc2-1 (centres unmarked) [II-13]
[2]
  IC50: 0.186 µM

## CCOCc1ccc2c(c1)c1c3c(c4c(c1n2CC1CO1)Cc1ccccc1-4)C(=O)NC3 (racemic) [II-58]
[2]; 300 nM compound
  trkA kinase activity % Inh. @ 300 nM (values in parentheses): (23) %

## O=C1CCC(C2c3ccccc3-c3c4c(c5c([nH]c6ccccc65)c32)CNC4=O)=NN1 (centres unmarked) [II-49]
[2]
  IC50: 0.321 µM

## CC(=O)N1CCC(O)(C2c3ccccc3-c3c4c(c5c([nH]c6ccccc65)c32)CNC4=O)CC1 (centres unmarked) [II-24]
[2]; 300 nM compound
  trkA kinase activity % Inh. @ 300 nM (values in parentheses): (34) %

## CCN1CCCC(O)(C2c3ccccc3-c3c4c(c5c([nH]c6ccccc65)c32)CNC4=O)C1 (mixture of isomers) [II-16]
[2]; 300 nM compound
  trkA kinase activity % Inh. @ 300 nM (values in parentheses): (38) %

## CCOC1COCC(C)(C2c3ccccc3-c3c4c(c5c([nH]c6ccccc65)c32)CNC4=O)O1 (single isomer, unassigned) [II-51d]
[2]; 300 nM compound, 0.3 µM
  trkA kinase activity % Inh. @ 300 nM (values in parentheses): (58) %
[1]; 0.3 µM
  VEGF receptor kinase activity % Inh. @ 300 nM (values in parentheses): (48) %

## C=C1COC(C)(C2c3ccccc3-c3c4c(c5c([nH]c6ccccc65)c32)CNC4=O)C1 (mixture of isomers) [II-25]
[2]; 300 nM compound
  trkA kinase activity % Inh. @ 300 nM (values in parentheses): (27) %

## O=C1NCc2c1c1c(c3c2c2ccccc2n3C[C@H]2CO2)Cc2ccccc2-1 [II-01c]
[2]
  IC50: 0.163 µM
[1]
  IC50: 0.168 µM

## O=C1NCc2c1c1c(c3[nH]c4ccccc4c23)C(C2(O)CCC2)c2ccccc2-1 (centres unmarked) [II-18]
[2]; 300 nM compound
  trkA kinase activity % Inh. @ 300 nM (values in parentheses): (45) %

## CC(=O)OCC1(C2c3ccccc3-c3c4c(c5c([nH]c6ccccc65)c32)CNC4=O)CCCO1 (centres unmarked) [II-22]
[2]
  IC50: 0.095 µM

## CCOC1CCC(C2c3ccccc3-c3c4c(c5c([nH]c6ccccc65)c32)CNC4=O)O1 (centres unmarked) [II-40b]
[2]
  IC50: 0.059 µM
[1]
  IC50: 1.42 µM

## CCOC1COCC(C)(C2c3ccccc3-c3c4c(c5c([nH]c6ccccc65)c32)CNC4=O)O1 (centres unmarked) [II-51a]
[2]; 300 nM compound, read-out: trkA kinase activity % Inh. @ 300 nM (values in parentheses)
  inhibition at 0.3 µM: 56%
[1]
  IC50: 0.17 µM

## CCOC1COCC(C)(C2c3ccccc3-c3c4c(c5c([nH]c6ccccc65)c32)CNC4=O)O1 (mixture of isomers) [II-51bc]
[2]; 300 nM compound, 0.3 µM
  trkA kinase activity % Inh. @ 300 nM (values in parentheses): (56) %
[1]; 0.3 µM
  VEGF receptor kinase activity % Inh. @ 300 nM (values in parentheses): (62) %

## O=C1NCc2c1c1c(c3c2c2ccccc2n3C[C@@H]2CO2)Cc2ccccc2-1 [II-01b]
[1]
  IC50: 0.266 µM

## CC1(C2c3ccccc3-c3c4c(c5c([nH]c6ccccc65)c32)CNC4=O)CC(=O)CO1 (centres unmarked) [II-27]
[2]
  IC50: 0.166 µM

## CCOC1CCC(CO)(C2c3cc(OC)ccc3-c3c4c(c5c([nH]c6ccccc65)c32)CNC4=O)O1 (single isomer, unassigned) [II-54]
[2]
  IC50: 0.059 µM
[1]
  IC50: 0.122 µM
[3]
  Cell Score @ 100 nM (percent decrease in trk protein band): 2 (2=26-49%)
  Cell Score @ 1 uM (percent decrease in trk protein band): 4 (4=76-100%)

## COCCOCOCC1(C2c3ccccc3-c3c4c(c5c([nH]c6ccccc65)c32)CNC4=O)CCC(=O)O1 (mixture of isomers) [II-31]
[2]
  IC50: 0.173 µM

## CCC1(C2(CO)CCCO2)c2ccccc2-c2c3c(c4c([nH]c5ccccc54)c21)CNC3=O (mixture of isomers) [II-34]
[2]; 300 nM compound
  trkA kinase activity % Inh. @ 300 nM (values in parentheses): (38) %
[1]
  VEGF receptor kinase activity % Inh. @ 300 nM (values in parentheses): (52) %

## CC1(C)OC2CC(O)(C3c4ccccc4-c4c5c(c6c([nH]c7ccccc76)c43)CNC5=O)OC2O1 (mixture of isomers) [II-48]
[2]; 300 nM compound
  trkA kinase activity % Inh. @ 300 nM (values in parentheses): (46) %
